Data: ChEMBL document CHEMBL1152184, “A micellar prodrug of paclitaxel conjugated to cyclotriphosphazene” (Bioorg Med Chem Lett, 2008)
pIC50: −log10 of the molar value.

System: A-431
Assay: Cytotoxicity against human A431 cells after 72 hrs by SRB method
Type: functional, cell-based
Conditions: A-431, 72 h

SMILES: CC(=O)O[C@H]1C(=O)[C@@]2(C)[C@H]([C@H](OC(=O)c3ccccc3)[C@]3(O)C[C@H](OC(=O)[C@H](O)[C@@H](NC(=O)c4ccccc4)c4ccccc4)C(C)=C1C3(C)C)[C@]1(OC(C)=O)CO[C@@H]1C[C@@H]2O [PACLITAXEL]
- pIC50: 7.60
